The source of these data is EPA's ToxValDB 9.5 (doi:10.2903/j.efsa.2018.5405).

Converted amounts (≈) assume the structure as drawn.

One series concerns Colinus virginianus. The note with it: acute; oral; mortality.
The next series relates to Neomysis kadiakensis. The following applies: chronic/long-term; duration: 28 days; development.
The next series relates to Anas platyrhynchos. The note with it: reproductive.
The test system of another series is Apis mellifera. The following applies: acute, mortality.
The next series deals with Oncorhynchus mykiss. The following applies: for LC50: acute, duration: 96 hours, mortality.
For the next series, the system named is Hypoaspis aculeifer. The note with it: chronic/long-term; reproduction.
The next series has as its system Bibionidae. The note with it: chronic/long-term; duration: 28 days; development.
A further series concerns Typhlodromus pyri. Briefly: LR50; higher = less toxic. The note with it: acute; mortality.
The next series concerns Tagia sp. The note with it: chronic/long-term; reproduction.

Broadly, the NOAEL is the highest dose or exposure tested at which no adverse effect was seen. The term LC50 denotes the concentration that kills 50% of the test population. For `CC1(C)C(C=C(Cl)Cl)[C@@H]1C(=O)O[C@@H](C#N)c1ccc(F)c(Oc2ccccc2)c1` (stereo partly drawn) [beta-Cyfluthrin], the LD50 is over 58.6 mg/kg-day in the series with Colinus virginianus; over 8.79 mg/kg-day in the series with Rattus norvegicus (acute, oral, mortality); 0.012 µg/piece in the series on Apis mellifera (dermal); 0.05 µg/piece in the series on Apis mellifera (oral, unspecified). For the same compound, the NOAEL was 1.39 mg/kg-day with Rattus norvegicus (chronic); 0.02 mg/kg-day in the series on Rattus norvegicus (subchronic, duration: 13 weeks, inhalation, behavior); 2.6 mg/kg-day in the series with Anas platyrhynchos. In addition, the NOEC was determined as 0.00041 µg/L with Neomysis kadiakensis; 0.0042 µg/L with Oncorhynchus mykiss (chronic/long-term, duration: 58 days, growth); 0.485 mg/kg in the series with Hypoaspis aculeifer; 0.0057 µg/L in the series on Bibionidae. The compound further registered an LC50 in the series on Oncorhynchus mykiss of 6.8e-05 µg/mL (≈ 0.000157 µM). This compound showed an LR50 in the series on Typhlodromus pyri of 0.0025 g/ha.

Take `O=C(O)c1ccc(F)c(Oc2ccccc2)c1` [4-Fluoro-3-phenoxybenzoic acid]: the NOEC in the series with Tagia sp. was 2.6 mg/kg. The same compound came in with a 50% lethal concentration (LC50) with Oncorhynchus mykiss of 4.06 µg/mL (≈ 17.5 µM).
